Values quoted from earlier work in patent US20170173059A1, “Novel Combination of Naturally Occurring Compounds to Assist With Suspected Mycobacterial Infections Related to Autoimmune Conditions” (priority 2015, published 2017).
“Also recorded” adds a separate entry of the source. Read-outs that look alike come from different tables or passages of the source.

What was measured:
[1] = tested on: patients with inflammatory bowel disease; settings: Boswellia group versus sulfasalazine control group
[2] = material data safety sheets / classification
[3] = tested on: Mycobacterium avium subspecies paratuberculosis (MAP); settings: selected strains of MAP
MAP = settings: bovine and human MAP strains, radiometric culture
5-lipoxygenase = molecular target: T1, 5-lipoxygenase (Homo sapiens, UniProt P09917)
T1 sequence (P09917 1-674): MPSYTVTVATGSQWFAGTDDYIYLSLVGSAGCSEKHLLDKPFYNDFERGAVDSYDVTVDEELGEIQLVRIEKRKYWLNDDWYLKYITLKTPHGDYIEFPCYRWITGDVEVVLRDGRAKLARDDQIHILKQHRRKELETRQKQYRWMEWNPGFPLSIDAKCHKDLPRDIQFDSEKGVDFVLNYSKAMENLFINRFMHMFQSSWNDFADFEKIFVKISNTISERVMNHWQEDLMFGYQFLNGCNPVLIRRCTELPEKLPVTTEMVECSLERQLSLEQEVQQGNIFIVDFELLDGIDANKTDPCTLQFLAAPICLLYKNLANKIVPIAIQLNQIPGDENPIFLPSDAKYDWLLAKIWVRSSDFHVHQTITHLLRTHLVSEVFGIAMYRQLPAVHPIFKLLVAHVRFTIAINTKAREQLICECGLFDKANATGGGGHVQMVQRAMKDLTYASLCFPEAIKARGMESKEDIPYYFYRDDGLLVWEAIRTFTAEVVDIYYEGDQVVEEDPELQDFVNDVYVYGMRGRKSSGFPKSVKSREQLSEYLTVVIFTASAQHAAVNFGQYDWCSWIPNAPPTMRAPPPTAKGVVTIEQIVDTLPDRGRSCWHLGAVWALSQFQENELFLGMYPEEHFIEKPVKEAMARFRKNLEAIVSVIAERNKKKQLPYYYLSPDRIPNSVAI

M. avium = settings: radiometric culture
M.Tb = settings: radiometric culture
[4] = tested on: multidrug resistance pumps (MDR pumps)

In the case of O=C(O)c1cc(/N=N/c2ccc(S(=O)(=O)Nc3ccccn3)cc2)ccc1O [sulfasalazine], the remission rates [1] is given as 75%.

For O=C/C=C/c1ccccc1 [Trans-cinnamaldehyde], the “safety listing (GRAS)” value [2] is given as “GRAS” and the “inhibition of MAP in vitro” value [3] is given as “shown to inhibit”.

In the case of CC(=O)OC/C=C(C)/C=C/C=C(C)/C=C/C1=C(C)CCCC1(C)C [retinyl acetate], the “inhibition of MAP strains in vitro” value (MAP) is given as “inhibitory effects; also recorded: highest inhibition of the group”.

In the case of Vitamin A, the “inhibition of MAP strains in vitro” value (MAP) is listed as “in vitro inhibition” and the “inhibition of MAP strains in vitro” value (MAP; listed as vitamin A) is listed as “found to inhibit”.

In the case of CC(=O)O[C@@H]1CC[C@@]2(C)[C@@H](CC[C@]3(C)[C@@H]2C(=O)C=C2[C@@H]4[C@@H](C)[C@H](C)CC[C@]4(C)CC[C@]23C)[C@@]1(C)C(=O)O [acetyl-11-keto-beta-boswellic acid], the “effect on 5-lipoxygenase” value (5-lipoxygenase) is listed as “influenced”.

In the case of CC1=C(/C=C/C(C)=C/C=C/C(C)=C\C(=O)O)C(C)(C)CCC1 [13 cis-retinoic acid], the “inhibition of MAP strains in vitro” value (MAP) is listed as “inhibitory effects”.

In the case of O=CC=Cc1ccccc1 [Cinnamaldehyde], the “safety listing (GRAS)” value [2] is given as “GRAS” and the “inhibition of MAP in vitro” value [3] is given as “shown to inhibit”.

In the case of CC1=C(/C=C/C(C)=C/C=C/C(C)=C/CO)C(C)(C)CCC1 [Retinol, (2E,4E,6E,8E)-3,7-Dimethyl-9-(2,6,6-trimethyl-cyclohex-1-enyl)-nona-2,4,6,8-tetraen-1-ol], the “inhibition of M. avium” value (M. avium) is listed as “strong inhibitory effect”, the “inhibition of M.Tb” value (M.Tb) is listed as “strong inhibitory effect” and the “inhibition of MAP strains in vitro” value (MAP) is listed as “strong inhibitory effect”.

In the case of COc1cc(C2Oc3cc(-c4cc(=O)c5c(O)cc(O)cc5o4)ccc3OC2CO)cc(OC)c1O (stereo not drawn) [Example 5-MHC, 5-methoxyhydnocarpin], the “multi-drug resistance pump inhibition” value [4] is given as “multi-drug resistance pump inhibitor”.

For C=C1CC[C@H](O)C/C1=C/C=C1\CCC[C@]2(C)[C@@H]([C@H](C)CCCC(C)C)CC[C@@H]12 [Vitamin D3, cholecalciferol], the “anti-neoplastic activity in colon tissue” value (colon tissue) is given as “specific anti-neoplastic activity”, the “anti-neoplastic activity in colon tissue” value (colon tissue; listed as D3) is given as “protect against neoplastic development” and the “inhibition of MAP strains in vitro” value (MAP) is given as “shown inhibition”.

For CC1=C(/C=C/C(C)=C/C=C/C(C)=C/C=C/C=C(C)/C=C/C=C(C)/C=C/C2=C(C)CCCC2(C)C)C(C)(C)CCC1 [β carotene], the “inhibition of MAP strains in vitro” value (MAP) is given as “inhibitory effects”.

In the case of Cc1ncc([N+](=O)[O-])n1CCO [Metronidazole], the “action against the family of mycobacteria” value (family of mycobacteria) is given as “little to no action”.

In the case of CC[C@@]1([C@@H]2O[C@@H]([C@H]3O[C@@](O)(CO)[C@H](C)C[C@@H]3C)C[C@@H]2C)CC[C@H]([C@]2(C)CC[C@]3(C[C@H](O)[C@@H](C)[C@@H]([C@@H](C)[C@@H](OC)[C@H](C)C(=O)O)O3)O2)O1 [Monensin], the “inhibition of MAP strains in vitro” value (MAP) is given as “displayed inhibition of MAP”.

For CC1(C)S[C@@H]2[C@H](NC(=O)[C@H](N)c3ccc(O)cc3)C(=O)N2[C@H]1C(=O)O [Amoxicillin], the “action against the family of mycobacteria” value (family of mycobacteria) is listed as “little to no action”.
